Reference: publication PMC5564600 (Oncotarget, 2017)
Where two headings read alike, the source gives them in different places.

Tests used:
Assay in all cases: biochemical
Format in all cases: binding
[1] = molecular target: T1, panel of 442 kinases (Homo sapiens, UniProt O43293); conditions: DAPK3; for remaining activity at 1 µM: read-out: % of control at 1 µM
T1 construct: purchased Ambit Biosciences (scanMAXX KINOMEscan)

[2] = molecular target: T2, panel of 442 kinases (Homo sapiens, UniProt O75385); conditions: kinase ULK1; for remaining activity at 1 µM: read-out: ULK1 (% of control at 1 µM)
T2 construct: purchased Ambit Biosciences (scanMAXX KINOMEscan)
T2 sequence (O75385 1-1050): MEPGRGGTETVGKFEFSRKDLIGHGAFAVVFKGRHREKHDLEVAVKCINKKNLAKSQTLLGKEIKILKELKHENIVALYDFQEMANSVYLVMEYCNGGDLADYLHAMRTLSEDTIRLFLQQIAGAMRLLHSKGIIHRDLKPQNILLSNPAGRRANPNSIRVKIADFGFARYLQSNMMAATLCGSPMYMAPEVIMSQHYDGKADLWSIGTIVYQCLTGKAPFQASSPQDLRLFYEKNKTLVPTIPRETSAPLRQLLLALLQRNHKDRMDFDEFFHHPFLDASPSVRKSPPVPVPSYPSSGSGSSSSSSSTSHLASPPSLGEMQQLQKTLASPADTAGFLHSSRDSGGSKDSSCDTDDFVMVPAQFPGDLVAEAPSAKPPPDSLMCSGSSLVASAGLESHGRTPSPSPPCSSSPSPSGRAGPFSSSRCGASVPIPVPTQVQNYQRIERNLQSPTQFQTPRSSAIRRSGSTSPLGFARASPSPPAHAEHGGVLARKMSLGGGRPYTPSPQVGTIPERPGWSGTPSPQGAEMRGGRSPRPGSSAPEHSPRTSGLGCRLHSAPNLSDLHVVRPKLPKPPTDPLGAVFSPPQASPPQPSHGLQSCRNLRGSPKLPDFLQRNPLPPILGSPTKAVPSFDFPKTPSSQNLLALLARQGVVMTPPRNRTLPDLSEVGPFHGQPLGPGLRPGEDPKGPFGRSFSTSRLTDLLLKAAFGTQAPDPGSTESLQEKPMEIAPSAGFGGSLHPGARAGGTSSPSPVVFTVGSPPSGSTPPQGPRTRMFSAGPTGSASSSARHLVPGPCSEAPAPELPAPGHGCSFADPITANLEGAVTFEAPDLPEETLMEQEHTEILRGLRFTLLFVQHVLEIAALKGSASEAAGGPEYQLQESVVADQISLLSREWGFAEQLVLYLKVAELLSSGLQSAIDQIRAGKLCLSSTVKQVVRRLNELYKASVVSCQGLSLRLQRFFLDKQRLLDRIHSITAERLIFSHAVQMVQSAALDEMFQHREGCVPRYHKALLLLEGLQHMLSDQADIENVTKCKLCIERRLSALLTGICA

[3] = molecular target: T3, panel of 442 kinases (Homo sapiens, UniProt P00533, L858R); conditions: EGFR(L858R); for remaining activity at 1 µM: read-out: % of control at 1 µM
T3 construct: purchased Ambit Biosciences (scanMAXX KINOMEscan)

[4] = molecular target: T4, panel of 442 kinases (Homo sapiens, UniProt P00533, L861Q); conditions: EGFR(L861Q); for remaining activity at 1 µM: read-out: % of control at 1 µM
T4 construct: purchased Ambit Biosciences (scanMAXX KINOMEscan)

[5] = molecular target: T5, panel of 442 kinases (Homo sapiens, UniProt P29376); conditions: kinase LTK; for remaining activity at 1 µM: read-out: % of control at 1 µM
T5 construct: purchased Ambit Biosciences (scanMAXX KINOMEscan)

[6] = molecular target: T6, panel of 442 kinases (Homo sapiens, UniProt P36896); conditions: ACVR1B; for remaining activity at 1 µM: read-out: % of control at 1 µM
T6 construct: purchased Ambit Biosciences (scanMAXX KINOMEscan)
T6 sequence (P36896 24-505): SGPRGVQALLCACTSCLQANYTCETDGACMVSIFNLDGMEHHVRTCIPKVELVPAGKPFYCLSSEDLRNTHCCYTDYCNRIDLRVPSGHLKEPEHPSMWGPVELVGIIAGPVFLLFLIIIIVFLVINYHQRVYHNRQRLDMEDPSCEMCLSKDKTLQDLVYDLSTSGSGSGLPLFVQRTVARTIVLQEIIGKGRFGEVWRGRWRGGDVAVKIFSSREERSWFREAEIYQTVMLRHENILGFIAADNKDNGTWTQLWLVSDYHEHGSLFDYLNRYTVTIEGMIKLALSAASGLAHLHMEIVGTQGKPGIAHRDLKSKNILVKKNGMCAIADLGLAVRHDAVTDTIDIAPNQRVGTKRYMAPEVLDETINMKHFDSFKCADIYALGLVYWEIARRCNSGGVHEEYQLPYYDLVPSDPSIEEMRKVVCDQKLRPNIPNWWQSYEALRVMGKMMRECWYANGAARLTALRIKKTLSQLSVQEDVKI

[7] = molecular target: T7, panel of 442 kinases (Homo sapiens, UniProt Q13882); conditions: BRK; for remaining activity at 1 µM: read-out: % of control at 1 µM
T7 construct: purchased Ambit Biosciences (scanMAXX KINOMEscan)

[8] = molecular target: T8, panel of 442 kinases (Homo sapiens, UniProt Q14004); conditions: for remaining activity at 1 µM: read-out: % of control at 1 µM; for remaining activity at 10 µM: read-out: % of control at 10 µM
T8 construct: purchased Ambit Biosciences (scanMAXX KINOMEscan)

[9] = molecular target: T9, panel of 442 kinases (Homo sapiens, UniProt Q8TDX7); conditions: kinase NEK7; for remaining activity at 1 µM: read-out: % of control at 1 µM
T9 construct: purchased Ambit Biosciences (scanMAXX KINOMEscan)

[10] = molecular target: T10, panel of 442 kinases (Homo sapiens, UniProt Q92772); conditions: CDKL2; for remaining activity at 1 µM: read-out: % of control at 1 µM
T10 construct: purchased Ambit Biosciences (scanMAXX KINOMEscan)
T10 sequence (Q92772 1-493): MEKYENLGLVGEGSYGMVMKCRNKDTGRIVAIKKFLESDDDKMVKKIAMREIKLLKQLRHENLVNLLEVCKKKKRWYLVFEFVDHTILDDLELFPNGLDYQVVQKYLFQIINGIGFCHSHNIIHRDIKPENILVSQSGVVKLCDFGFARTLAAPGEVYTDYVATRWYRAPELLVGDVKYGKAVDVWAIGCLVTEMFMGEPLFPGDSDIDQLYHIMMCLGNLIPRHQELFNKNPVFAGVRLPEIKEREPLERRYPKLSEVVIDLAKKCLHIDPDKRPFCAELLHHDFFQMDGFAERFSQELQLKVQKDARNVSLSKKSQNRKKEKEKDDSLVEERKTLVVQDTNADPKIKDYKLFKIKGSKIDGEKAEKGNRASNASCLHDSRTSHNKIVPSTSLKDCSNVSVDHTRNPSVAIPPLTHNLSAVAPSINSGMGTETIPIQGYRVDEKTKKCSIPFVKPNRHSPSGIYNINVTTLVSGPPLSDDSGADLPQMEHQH

[11] = molecular target: T11, panel of 442 kinases (Homo sapiens, UniProt Q9HBH9); conditions: kinase MKNK2; for remaining activity at 1 µM: read-out: % of control at 1 µM
T11 construct: purchased Ambit Biosciences (scanMAXX KINOMEscan)

[12] = 10 µM, read-out: % of control at 10 µM

T1 sequence (O43293 whole entry): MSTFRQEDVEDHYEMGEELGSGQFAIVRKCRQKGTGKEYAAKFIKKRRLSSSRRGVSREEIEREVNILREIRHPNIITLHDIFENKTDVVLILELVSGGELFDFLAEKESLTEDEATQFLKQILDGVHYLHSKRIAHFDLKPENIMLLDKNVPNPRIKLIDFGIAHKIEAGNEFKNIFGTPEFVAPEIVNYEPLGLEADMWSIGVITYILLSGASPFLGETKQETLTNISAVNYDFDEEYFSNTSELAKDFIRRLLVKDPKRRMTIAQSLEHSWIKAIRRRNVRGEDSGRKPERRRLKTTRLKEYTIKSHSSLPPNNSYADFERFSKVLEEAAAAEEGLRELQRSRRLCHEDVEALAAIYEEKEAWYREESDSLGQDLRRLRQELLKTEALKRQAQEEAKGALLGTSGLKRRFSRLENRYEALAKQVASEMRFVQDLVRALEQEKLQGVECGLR
T11 sequence (Q9HBH9 whole entry): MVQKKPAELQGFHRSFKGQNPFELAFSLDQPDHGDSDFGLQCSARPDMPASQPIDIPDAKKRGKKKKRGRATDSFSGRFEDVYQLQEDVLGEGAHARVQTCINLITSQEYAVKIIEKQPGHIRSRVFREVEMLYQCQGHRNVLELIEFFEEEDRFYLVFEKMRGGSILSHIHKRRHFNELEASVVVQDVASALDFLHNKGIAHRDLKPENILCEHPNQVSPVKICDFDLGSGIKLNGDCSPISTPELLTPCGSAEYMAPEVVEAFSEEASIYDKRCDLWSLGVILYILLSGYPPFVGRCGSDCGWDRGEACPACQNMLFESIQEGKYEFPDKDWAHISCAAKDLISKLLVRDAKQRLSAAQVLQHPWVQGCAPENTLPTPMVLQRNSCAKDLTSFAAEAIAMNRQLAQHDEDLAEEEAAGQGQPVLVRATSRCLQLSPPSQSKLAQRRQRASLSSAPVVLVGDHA
T7 sequence (Q13882 whole entry): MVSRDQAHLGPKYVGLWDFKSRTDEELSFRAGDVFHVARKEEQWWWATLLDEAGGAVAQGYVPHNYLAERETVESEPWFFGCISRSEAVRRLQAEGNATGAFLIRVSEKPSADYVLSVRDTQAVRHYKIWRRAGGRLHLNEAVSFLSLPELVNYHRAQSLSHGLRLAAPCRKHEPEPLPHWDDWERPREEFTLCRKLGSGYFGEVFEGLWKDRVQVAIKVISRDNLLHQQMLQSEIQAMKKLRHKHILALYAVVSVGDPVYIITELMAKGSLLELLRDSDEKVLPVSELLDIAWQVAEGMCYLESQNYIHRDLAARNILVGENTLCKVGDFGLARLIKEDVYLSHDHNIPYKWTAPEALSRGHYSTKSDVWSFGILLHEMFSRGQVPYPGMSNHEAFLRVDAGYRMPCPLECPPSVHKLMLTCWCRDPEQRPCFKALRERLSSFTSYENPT
T8 sequence (Q14004 whole entry): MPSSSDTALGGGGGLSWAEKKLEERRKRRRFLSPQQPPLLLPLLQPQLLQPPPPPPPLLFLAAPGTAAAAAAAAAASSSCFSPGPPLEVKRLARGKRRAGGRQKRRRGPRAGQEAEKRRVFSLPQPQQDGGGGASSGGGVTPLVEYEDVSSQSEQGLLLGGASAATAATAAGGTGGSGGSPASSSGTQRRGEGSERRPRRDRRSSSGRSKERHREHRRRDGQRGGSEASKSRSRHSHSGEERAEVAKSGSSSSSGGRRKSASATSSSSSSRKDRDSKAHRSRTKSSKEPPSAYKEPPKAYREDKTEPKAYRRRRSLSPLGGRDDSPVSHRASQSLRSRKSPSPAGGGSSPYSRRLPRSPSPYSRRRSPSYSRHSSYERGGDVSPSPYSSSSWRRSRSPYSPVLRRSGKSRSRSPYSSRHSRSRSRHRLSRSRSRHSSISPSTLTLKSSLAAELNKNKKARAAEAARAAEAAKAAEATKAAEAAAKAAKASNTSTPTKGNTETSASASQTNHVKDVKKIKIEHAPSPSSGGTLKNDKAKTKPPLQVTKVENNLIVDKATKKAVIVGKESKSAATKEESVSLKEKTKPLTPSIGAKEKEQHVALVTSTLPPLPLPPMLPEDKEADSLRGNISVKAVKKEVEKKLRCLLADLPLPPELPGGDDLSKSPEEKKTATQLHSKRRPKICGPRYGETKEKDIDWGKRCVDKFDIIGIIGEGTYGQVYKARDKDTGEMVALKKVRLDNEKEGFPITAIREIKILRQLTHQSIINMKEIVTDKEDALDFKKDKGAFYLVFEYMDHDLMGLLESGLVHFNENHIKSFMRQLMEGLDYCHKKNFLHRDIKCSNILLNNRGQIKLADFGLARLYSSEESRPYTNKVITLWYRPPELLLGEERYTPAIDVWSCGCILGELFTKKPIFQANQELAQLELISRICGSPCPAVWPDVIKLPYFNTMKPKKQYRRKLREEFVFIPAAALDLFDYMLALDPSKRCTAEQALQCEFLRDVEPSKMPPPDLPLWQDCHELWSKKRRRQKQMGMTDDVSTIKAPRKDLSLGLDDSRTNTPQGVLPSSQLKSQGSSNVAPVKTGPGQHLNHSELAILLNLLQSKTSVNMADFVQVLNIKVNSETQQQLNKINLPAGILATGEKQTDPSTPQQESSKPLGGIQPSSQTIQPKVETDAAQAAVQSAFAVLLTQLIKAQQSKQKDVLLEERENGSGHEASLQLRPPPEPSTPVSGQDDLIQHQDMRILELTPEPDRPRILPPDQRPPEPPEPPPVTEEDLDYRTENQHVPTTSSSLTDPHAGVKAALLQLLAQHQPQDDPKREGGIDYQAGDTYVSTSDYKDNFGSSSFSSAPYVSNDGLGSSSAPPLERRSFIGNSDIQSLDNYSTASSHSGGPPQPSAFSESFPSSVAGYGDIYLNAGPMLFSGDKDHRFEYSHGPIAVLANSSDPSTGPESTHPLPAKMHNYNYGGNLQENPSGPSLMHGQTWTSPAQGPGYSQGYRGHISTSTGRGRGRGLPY
T3 sequence (P00533 25-1210 L858R): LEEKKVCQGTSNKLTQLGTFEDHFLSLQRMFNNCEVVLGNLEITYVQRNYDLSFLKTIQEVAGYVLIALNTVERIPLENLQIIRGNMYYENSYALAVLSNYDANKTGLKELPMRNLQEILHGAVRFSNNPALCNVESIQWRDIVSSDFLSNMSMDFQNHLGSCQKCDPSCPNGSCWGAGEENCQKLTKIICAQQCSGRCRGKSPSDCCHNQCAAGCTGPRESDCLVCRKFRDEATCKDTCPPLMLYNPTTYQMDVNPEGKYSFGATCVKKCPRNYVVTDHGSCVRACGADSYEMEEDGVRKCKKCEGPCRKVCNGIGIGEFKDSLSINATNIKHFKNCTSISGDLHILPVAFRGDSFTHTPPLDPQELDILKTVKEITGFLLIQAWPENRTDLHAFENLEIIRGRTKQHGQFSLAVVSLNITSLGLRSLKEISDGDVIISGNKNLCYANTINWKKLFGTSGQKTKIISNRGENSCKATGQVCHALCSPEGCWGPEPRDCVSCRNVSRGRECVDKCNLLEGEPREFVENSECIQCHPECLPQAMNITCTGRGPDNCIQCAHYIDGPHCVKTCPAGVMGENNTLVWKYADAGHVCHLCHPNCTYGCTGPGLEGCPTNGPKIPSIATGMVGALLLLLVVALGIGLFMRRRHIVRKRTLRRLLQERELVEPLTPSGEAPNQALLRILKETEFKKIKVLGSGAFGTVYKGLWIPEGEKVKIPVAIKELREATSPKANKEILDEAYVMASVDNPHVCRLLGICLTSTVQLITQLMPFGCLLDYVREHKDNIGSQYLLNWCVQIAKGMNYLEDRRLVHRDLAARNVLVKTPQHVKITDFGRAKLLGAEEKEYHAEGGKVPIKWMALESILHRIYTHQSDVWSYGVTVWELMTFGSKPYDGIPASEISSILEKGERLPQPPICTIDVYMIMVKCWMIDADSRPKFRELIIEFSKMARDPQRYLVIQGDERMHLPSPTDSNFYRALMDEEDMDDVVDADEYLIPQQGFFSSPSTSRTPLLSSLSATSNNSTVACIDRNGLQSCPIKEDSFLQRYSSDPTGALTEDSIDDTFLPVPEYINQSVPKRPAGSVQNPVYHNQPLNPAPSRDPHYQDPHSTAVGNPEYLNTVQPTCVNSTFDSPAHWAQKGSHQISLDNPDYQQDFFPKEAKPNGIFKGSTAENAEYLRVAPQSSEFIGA
T9 sequence (Q8TDX7 whole entry): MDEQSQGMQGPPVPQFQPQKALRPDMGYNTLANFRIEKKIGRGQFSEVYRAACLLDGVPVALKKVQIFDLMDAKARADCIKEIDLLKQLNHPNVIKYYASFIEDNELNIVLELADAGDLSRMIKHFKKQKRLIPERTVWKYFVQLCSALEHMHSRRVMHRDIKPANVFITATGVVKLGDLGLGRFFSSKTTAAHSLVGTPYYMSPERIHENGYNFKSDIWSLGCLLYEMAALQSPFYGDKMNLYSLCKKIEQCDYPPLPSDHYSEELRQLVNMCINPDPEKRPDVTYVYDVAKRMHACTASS

Structure (SMILES)	remaining activity at 1 µM [1]	remaining activity at 1 µM [2]	remaining activity at 1 µM [3]	remaining activity at 1 µM [4]	remaining activity at 1 µM [5]	remaining activity at 1 µM [6]	remaining activity at 1 µM [7]	remaining activity at 1 µM ([8]; CDC2L5, 1 µM)	remaining activity at 10 µM ([8]; CDC2L5)	remaining activity at 1 µM [9]	remaining activity at 1 µM [10]	remaining activity at 1 µM [11]	other results
Nc1cc(C(F)(F)F)c(-c2cc(N3CCOCC3)nc(N3CCOCC3)n2)cn1 [Buparlisib]	100%	100%	100%	88%	99%	87%	100%	75%	100%	100%	66%	90%	remaining activity at 10 µM [1, 12]: 100%; remaining activity at 10 µM ([2]; 10 µM, read-out: ULK1 (% of control at 10 µM)): 100%; remaining activity at 10 µM [3, 12]: 100%; remaining activity at 10 µM [4, 12]: 83%; remaining activity at 10 µM [5, 12]: 100%; remaining activity at 10 µM [6, 12]: 83%; remaining activity at 10 µM [7, 12]: 100%; remaining activity at 10 µM [9, 12]: 94%; remaining activity at 10 µM [10, 12]: 100%; remaining activity at 10 µM [11, 12]: 80%
Cn1c(=O)n(-c2ccc(C(C)(C)C#N)cc2)c2c3cc(-c4cnc5ccccc5c4)ccc3ncc21 [Dactolisib, 2-methyl-2-[4-(3-methyl-2-oxo-8-quinolin-3-yl-2,3-dihydroimidazo[4,5-c]quinolin-1-yl)-phenyl] propionitrile]	100%	88%			23%	100%	90%	87%		90%	26%	100%	
COc1ncc(-c2ccc3nccc(-c4ccnnc4)c3c2)cc1NS(=O)(=O)c1ccc(F)cc1F [Omipalisib]	100%	99%	83%	100%	88%	100%	91%	100%		100%	90%	98%	
CS(=O)(=O)N1CCN(Cc2cc3nc(-c4cccc5[nH]ncc45)nc(N4CCOCC4)c3s2)CC1 [Pictilisib, 2-(1H-indazol-4-yl)-6-(4-methanesulfonyl-piperazin-1-ylmethyl)-4-morpholin-4-yl-t hieno[3,2-d]pyrimidine]								70%	100%				
FC(F)c1nc2ccccc2n1-c1nc(N2CCOCC2)nc(N2CCOCC2)n1 [ZSTK474, 2-(difluoromethyl)-1-[4,6-di(4-morpholinyl)-1,3,5-triazin-2-yl]-1H-benzimidazole]	100%	69%	100%	100%	72%	60%	91%			68%	100%	100%	remaining activity at 1 µM [8]: 100%
